# Measurements: article PMC2826162 (Expert opinion on drug metabolism & toxicology, 2010)
# Like-named read-outs stand apart in the source and are kept apart here.
# Columns and labels:
# [1] = test system: CYP3A4; details: cited from earlier work
# [2] = test system: CYP2C9; details: cited from earlier work
# [3] = biological target: T1, C334ACYP101 (Pseudomonas putida, UniProt P00183, C335A); assay: biochemical; type: binding
# [4] = biological target: T1, C334ACYP101; assay: biochemical; type: binding; remark: listed apart in the source
# [5] = test system: CYP73As; details: cinnamate hydroxylation; cited from earlier work
# [6] = test system: CYP2C9; details: cited from earlier work; remark: listed apart in the source
# [7] = test system: CYP101
# [8] = test system: CYPC21 (steroid C-21 hydroxylase of bovine adrenocortical microsomes); details: low spin to five coordinated high spin; cited from earlier work
# [9] = biological target: T2, CYP2B4 (Oryctolagus cuniculus, UniProt P00178); details: cited from earlier work
# T2 sequence (P00178 whole entry): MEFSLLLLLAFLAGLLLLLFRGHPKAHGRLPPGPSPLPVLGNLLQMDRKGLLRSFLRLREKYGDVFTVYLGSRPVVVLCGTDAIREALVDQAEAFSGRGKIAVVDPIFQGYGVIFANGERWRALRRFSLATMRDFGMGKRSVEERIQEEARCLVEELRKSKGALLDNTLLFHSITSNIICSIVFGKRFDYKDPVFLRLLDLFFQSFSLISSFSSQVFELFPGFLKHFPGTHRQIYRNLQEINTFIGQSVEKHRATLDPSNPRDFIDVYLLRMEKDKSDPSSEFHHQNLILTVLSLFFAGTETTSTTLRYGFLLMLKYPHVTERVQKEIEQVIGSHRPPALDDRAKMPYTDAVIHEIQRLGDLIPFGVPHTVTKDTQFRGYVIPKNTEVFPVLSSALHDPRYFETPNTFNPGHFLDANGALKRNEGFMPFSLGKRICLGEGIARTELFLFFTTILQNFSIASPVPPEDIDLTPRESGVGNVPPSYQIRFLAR
# [10] = test system: CYP2B4; details: cited from earlier work
# [11] = biological target: T2, CYP2B4; details: pH 7.4
# [12] = biological target: T2, CYP2B4
# [13] = biological target: T1, C334ACYP101; type: binding; details: for K4 apparent equilibrium constant: product (P) binding to ES; for K4 apparent equilibrium constant / K2 apparent equilibrium constant: pH 7.4, 24°C; for K2 apparent equilibrium constant: product binding to E; for K1K4: product of constants, ESP formed via ES
# T1 sequence (P00183 whole entry C335A): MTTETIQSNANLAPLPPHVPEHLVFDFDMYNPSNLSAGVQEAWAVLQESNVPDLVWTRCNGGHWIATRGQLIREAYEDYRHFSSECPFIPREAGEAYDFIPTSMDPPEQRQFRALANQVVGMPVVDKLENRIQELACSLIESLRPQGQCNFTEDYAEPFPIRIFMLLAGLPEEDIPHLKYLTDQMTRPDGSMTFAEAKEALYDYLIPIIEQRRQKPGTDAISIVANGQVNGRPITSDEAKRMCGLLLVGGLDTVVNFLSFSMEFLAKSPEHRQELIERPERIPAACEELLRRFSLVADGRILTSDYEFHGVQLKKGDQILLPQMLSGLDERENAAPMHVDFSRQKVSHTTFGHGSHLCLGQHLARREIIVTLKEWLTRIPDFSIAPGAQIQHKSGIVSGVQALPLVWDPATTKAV
compound,measurement,setting,value
COc1cc2c(c3oc(=O)c4c(c13)CCC4=O)[C@@H]1C=CO[C@@H]1O2 [aflatoxin B1],effect on metabolism of α-NF by CYP3A4,[1],has no effect
Nc1ccc(S(=O)(=O)c2ccc(NO)cc2)cc1 [N-hydroxydapsone],effect on coupling efficiency of flurbiprofen hydroxylation,[2],enhanced
same,effect on flurbiprofen hydroxylation,[2],stimulating
"O=C1C2CC3CC(C2)CC1C3 [2 Adone, 2-Adamantanone]",Kd,"[3]; KD^APP Transient, C334ACYP101, 10-13°C jump, 0.05 M K-PO4 buffer + 0.1 M KCl",6 ± 2 µM
same,Kd,[4],2.9 ± 0.2 µM
O=C(O)/C=C/c1ccc(O)cc1 [coumerate],product inhibition of substrate hydroxylation,[5],not observable
Nc1ccc(S(=O)(=O)c2ccc(N)cc2)cc1 [dapsone],effect on coupling efficiency of flurbiprofen hydroxylation,[2],enhanced
same,effect on flurbiprofen hydroxylation,[2],stimulating
same,Type I spectral change in the CYP2C9,[6]; static spectroscopy,does not elicit
"CC12CCC(CC1=O)C2(C)C (stereo not drawn) [Cam, Camphor]",peak to trough ratio of Type I difference spectrum,[7],~0.87
same,Kd,[3]; KD^APP Kinetic,6.2 ± 0.9 µM
same,Kd,[3]; KD^APP Transient,5 ± 0.5 µM
same,Kd,[4],4.8 ± 0.8 µM
C[C@]12CCC(=O)C=C1CC[C@@H]1[C@@H]2CC[C@]2(C)C(=O)CC[C@@H]12 [androstenedione],Type I spectral change,[8],elicited
"O=c1cc(-c2ccccc2)oc2c1ccc1ccccc12 [α-NF, α-naphthoflavone]",effect on metabolism of aflatoxin B1 by CYP3A4,[1],activates
C[C@]12CC[C@H]3[C@@H](CCC4=CC(=O)CC[C@@]43C)[C@@H]1CC[C@@H]2O [testosterone],effect on metabolism of midazolum by CYP3A4,[1],inhibits
"C[C@H](Cc1ccccc1)NCc1ccccc1 [DesBNZ, desmethylbenzphetamine]",time of Site II re-ligation to form the final Type II complex (slow phase),[9],≤ 20 milliseconds
same,strength of hetero atom binding to Site II (L6),[10],as strongly as water
same,Kd,[11],701 ± 150 µM
same,binding of product formed in situ,[12],remains bound
"CC1(C)[C@H]2CC(=O)[C@]1(C)C[C@H]2O [5exo OH Camphor, 5-exo-OH camphor]",K4 apparent equilibrium constant,[13]; OHcam 38 uM,.012 ± .001 µM⁻¹
same,K2 apparent equilibrium constant,[13]; OHcam 38 uM,.039 ± .002 µM⁻¹
same,K1K4,[13]; OHcam 38 uM,.0080
same,K4 apparent equilibrium constant,[13]; OHcam 66 uM,.0078 ± .0005 µM⁻¹
same,K2 apparent equilibrium constant,[13]; OHcam 66 uM,.030 ± .004 µM⁻¹
same,K1K4,[13]; OHcam 66 uM,.0049
same,K4 apparent equilibrium constant,[13]; OHcam 100 uM,.0063 ± .0004 µM⁻¹
same,K2 apparent equilibrium constant,[13]; OHcam 100 uM,.034 ± .002 µM⁻¹
same,K1K4,[13]; OHcam 100 uM,.0043
same,K4 apparent equilibrium constant,[13]; OHcam 133 uM,.0039 ± .0003 µM⁻¹
same,K2 apparent equilibrium constant,[13]; OHcam 133 uM,.034 ± .002 µM⁻¹
same,K1K4,[13]; OHcam 133 uM,.0024
"CC(C(=O)O)c1ccc(-c2ccccc2)c(F)c1 (stereo not drawn) [Flurbiprofen, flurbiprofen]",Type I spectral change in the CYP2C9,[6],elicits
